Test results: PMC12394750, “2H-1,4-Benzoxazin-3(4H)-one linked 1,2,3-triazole derivatives and their study on inducing DNA damage in tumor cells” (Frontiers in Pharmacology, 2025)

Experiments:
[1] = system: Huh-7 (hepatocellular carcinoma); assay: CCK-8 cell viability / IC50, Huh-7; type: cell-based, human; conditions: Homo sapiens, Huh-7, 72 h; for viability at 50 µM: CCK-8; for IC50: CCK-8 dose-response
Protocol: (§1) To assess the cytotoxic potential of the newly synthesized compounds c1–c20, a panel of human tumor cell lines—including Huh-7 (hepatocellular carcinoma), MCF-7 (breast cancer), and A549 (lung cancer)—was treated with each compound at a concentration of 50 μM for 72 h. Cell viability and cytotoxicity were evaluated using the CCK-8 assay.
(§2) Cells were cultured in DMEM or RPMI 1640 medium with 10% FBS and 1% penicillin/streptomycin at 37 °C and 5% CO2. A CCK-8 assay was performed with several human cancer cell lines, including A549, Huh-7, MCF-7, HCT-116, and SKOV3, according to the instructions. Cells were plated at a density of 1,000–3,000 cells per well in a 96-well plate. After 24-h incubation, cells were treated with 40 μM compounds for 48 h or 50 μM compounds for 72 h. Cell viability was measured by adding 10 μL per well of CCK-8 reagent, which was dissolved in the cell culture medium, for 1 hour. Absorbance was taken at 450 nm using a microplate reader. The IC50 values of the compounds were further determined. Cells were seeded in a 96-well plate at a density of 1 × 10^3 cells/well. After adhering overnight, cells treated with […] concentrations (10 μM, 20 μM, 40 µM, or 80 μM) were used to draw the dose–response curve, and IC50 values were calculated by GraphPad Prism software. The CCK-8 assay was performed in triplicate, and each experiment was repeated at least three times. The results were expressed as mean ± SEM, and P < 0.05 was considered statistically significant.

A549 (lung cancer) = assay: CCK-8 cell viability, A549; type: cell-based; conditions: Homo sapiens, 72 h
Protocol: as §1, §2

Huh-7 cells [2] = assay: Annexin V-FITC/PI apoptosis flow cytometry; type: cell-based, human; conditions: Huh-7, 10, 20 or 30 μM, 72 h
Protocol: Apoptosis, a programmed form of cell death, was investigated to understand the molecular mechanisms behind the anti-proliferative effects of the novel compounds. Huh-7 cells were treated with various concentrations (10 μM, 20 μM, or 30 μM) of compounds c5, c14, c16, and c18 for 72 h. The cells were then stained with Annexin V-FITC and propidium iodide (PI) and analyzed by flow cytometry to determine the proportion of apoptotic cells.
Cells were plated at a density of 3 × 10^5 cells per well in a 6-well plate. Different concentrations of compounds were added to cells for 72 h. Then, cells were collected and washed with PBS. Annexin V-FITC and propidium iodide were then added to stained cells for 20 min. Apoptotic cells were quantified by a flow cytometer, and raw data were further analyzed by Flow Jo software v10. Values were expressed as mean ± SEM. Statistical significance was assessed using one-way ANOVA followed by the Student–Newman–Keuls test. P < 0.05 was considered statistically significant. Data were visualized using GraphPad Prism.

Huh-7 cells [3] = assay: Western blot protein expression; type: cell-based, human; conditions: Huh-7, 72 h (Figure 6 legend 24 h), 20 or 30 μM
Protocol: To further examine the regulatory effects of 2H-1,4-benzoxazin-3(4H)-one linked 1,2,3-triazole derivatives on protein expression, Huh-7 cells were treated with compounds c5, c14, c16, and c18 for 72 h, after which whole-cell protein lysates were collected for analysis.
FIGURE 6 Compounds c5, c14, c16, and c18 affected DNA damage and autophagy. (A–D) Huh-7 cells were treated with different concentrations of compounds c5, c14, c16, and c18 (20 or 30 μM) for 24 h. Protein expressions were analyzed by Western blot. Top: Western blot; bottom: quantitative measurements relative to ACTIN. Data were presented as means ± SEM; *P < 0.05.
Antibodies used in Western blot were as follows: caspase3, caspase9, LC3, γ-H2AX, PARP, cyclin D, cyclin E, β-catenin (all from Cell Signaling Technology, United States), and β-actin (Sigma, United States). Cells were treated with compounds (0 μM, 5 μM, 10 μM, 20 μM, or 30 μM) for 72 h, and the whole-cell proteins were collected using RIPA buffer containing protease/phosphatase inhibitor cocktail. The protein expressions were measured and analyzed using Western blot. Values were expressed as mean ± SEM. Statistical significance was assessed using a two-tailed Student’s t-test. P < 0.05 was considered statistically significant. Data were visualized using GraphPad Prism.

KM mice = assay: Acute toxicity test, HE staining of organs; type: in vivo; conditions: male KM mice, 500 mg/kg via gavage, 14 consecutive days
Protocol: We assessed the safety of compound c18 using an acute toxicity test in KM mice. Male mice were divided into a control group and a c18-treated group, with the latter receiving 500 mg/kg of compound c18 via gavage for 14 consecutive days, while the control group received an equivalent volume of solvent. To evaluate the safety of compound c18, major organs—including the heart, liver, spleen, lungs, and kidneys—were collected from treated KM mice and subjected to hematoxylin and eosin (HE) staining.

IC50 [1] [µM] | SMILES | viability at 50 µM [1] [%] | viability at 50 µM (A549 (lung cancer)) [%] | Apoptosis (proportion of apoptotic cells) (Huh-7 cells [2]) | H2AX protein expression (Huh-7 cells [3]) | LC3 protein expression (Huh-7 cells [3]) | PARP protein expression (Huh-7 cells [3]) | caspase-3 protein expression (Huh-7 cells [3]) | cyclin D protein expression (Huh-7 cells [3]) | Histopathological changes of heart, liver, spleen, lungs, kidneys (HE staining) (KM mice)
28.5 ± 0.29 | O=C1COc2cc(NC(=O)c3cccc(-c4cn(Cc5ccc(Br)cc5)nn4)c3)ccc2N1 [compound c5, 3-(1-(4-bromobenzyl)-1H-1,2,3-triazol-4-yl)-N-(3-oxo-3,4-dihydro-2H-benzo[b][1,4]oxazin-7-yl)benzamide] | 15.1 ± 0.43 | 90.8 ± 5.32 | significant, dose-dependent increases | upregulated | significantly induced | upregulated | upregulated | downregulated | 
32.6 ± 1.23 | O=C1COc2cc(NC(=O)c3cccc(-c4cn(Cc5cccc(F)c5)nn4)c3)ccc2N1 [compound c14, 3-(1-(3-fluorobenzyl)-1H-1,2,3-triazol-4-yl)-N-(3-oxo-3,4-dihydro-2H-benzo[b][1,4]oxazin-7-yl)benzamide] | 18.1 ± 0.76 | 77.5 ± 3.1 | significant, dose-dependent increases | upregulation | upregulation | upregulation |  | downregulation | 
31.87 ± 0.04 | O=C1COc2cc(NC(=O)c3cccc(-c4cn(Cc5ccc(C(F)(F)F)cc5)nn4)c3)ccc2N1 [compound c16, N-(3-oxo-3,4-dihydro-2H-benzo[b][1,4]oxazin-7-yl)-3-(1-(4-(trifluoromethyl)benzyl)-1H-1,2,3-triazol-4-yl)benzamide] | 17.7 ± 1.27 | 76.8 ± 4.31 | significant, dose-dependent increases | upregulation | upregulation | upregulation |  | downregulation | 

SMILES | IC50 [1] [µM] | viability at 50 µM [1] [%] | viability at 50 µM (A549 (lung cancer)) [%] | Apoptosis (proportion of apoptotic cells) (Huh-7 cells [2]) | H2AX protein expression (Huh-7 cells [3]) | LC3 protein expression (Huh-7 cells [3]) | PARP protein expression (Huh-7 cells [3]) | caspase-3 protein expression (Huh-7 cells [3]) | cyclin D protein expression (Huh-7 cells [3]) | Histopathological changes of heart, liver, spleen, lungs, kidneys (HE staining) (KM mice)
O=C1COc2cc(NC(=O)c3cccc(-c4cn(Cc5ccc(Cl)cc5)nn4)c3)ccc2N1 [compound c18, 3-(1-(4-chlorobenzyl)-1H-1,2,3-triazol-4-yl)-N-(3-oxo-3,4-dihydro-2H-benzo[b][1,4]oxazin-7-yl)benzamide] | 19.05 ± 0.12 | 17.1 ± 0.43 | 89.8 ± 2.89 | significant, dose-dependent increases | upregulation | upregulation | upregulation |  | downregulation | no significant histopathological changes
